Laboratory results reported in publication PMC9687900, “Design, Synthesis, Kinetic Analysis and Pharmacophore-Directed Discovery of 3-Ethylaniline Hybrid Imino-Thiazolidinone as Potential Inhibitor of Carbonic Anhydrase II: An Emerging Biological Target for Treatment of Cancer” (Biomolecules, 2022).

What was measured:
[1] = target: carbonic anhydrase II (CA-II) (Bos taurus, UniProt P00921); experiment: Carbonic anhydrase assay (p-nitrophenyl acetate hydrolysis); format: biochemical, bovine; conditions: for IC50: bovine enzyme, mean ± SEM
Method: As mentioned previously, the inhibition of carbonic anhydrase was investigated with adjustments. The method relies on the fact that carbonic anhydrase hydrolyzes p-nitrophenyl acetate into yellow-colored p-nitrophenol, which is then quantified spectrophotometrically. Each well contained 120 µL of a 50 mM Tris-sulfate buffer (pH 7.6, containing 0.1 mM ZnCl2), 20 µL of an inhibitor, and 20 µL of bovine enzyme (50 U). The materials were properly mixed and incubated for 10 min at 25 degrees Celsius. The substrate p-nitrophenyl acetate was synthesized (6 mM stock using <5% acetonitrile in buffer and used fresh each time) and 40 µL was added per well to achieve a concentration of […] per well. The total volume of the reaction was 200 µL. […] Each concentration was assessed in three distinct tests. The IC50 values were calculated with GraphPad Prism 5.0 [38] and nonlinear regression (GraphPad, San Diego, CA USA). (2) Inhibition (%)=B−S/B×100
Here, B and S represent the absorbances of the blank and sample, respectively.

carbonic anhydrase = carbonic anhydrase (Bos taurus, UniProt P00921); experiment: Kinetic analysis of carbonic anhydrase inhibition (Lineweaver–Burk plots); format: biochemical, bovine
Text: Based on the IC50 values, the most efficacious carbonic anhydrase inhibitor, compound 6e, was designated for kinetic investigation. Lineweaver-–Burk plots and a second plot are depicted in (Figure 3A,B). At various concentrations of the inhibitor and substrate, Lineweaver–Burk plots (plot of 1/V vs. 1/[S]) were generated to determine the kind of inhibition. […] The EI dissociation constant was shown by the second plot (Figure 3B) of the slope vs. the concentration of 6e.
To investigate the kinetic properties of compound 6e, identical experiments to those described in previous study were performed. The compound 6e was selected based on its IC50 value at various concentrations (0.00, 0.78, 1.55, and 3.11 µM, respectively), whereas the substrate concentrations (p-nitrophenyl acetate) were varied from (2, 1, 0.5, 0.25 and 0.125 mM). Other experimental settings mirrored those mentioned in the section under “Carbonic anhydrase assay”. The maximum starting velocity was estimated using the first linear section of absorbance up to 10 min at 1 min intervals. To evaluate the kind of enzyme inhibition, Lineweaver–Burk plots depicting the inverse of velocities (1/V) vs. the inverse of substrate concentration (1/[S] mM^−1) were utilized. […] Version 11 of Microsoft Excel was used to create graphs.

carbonic anhydrase II (CA-II), sequence (P00921 whole entry): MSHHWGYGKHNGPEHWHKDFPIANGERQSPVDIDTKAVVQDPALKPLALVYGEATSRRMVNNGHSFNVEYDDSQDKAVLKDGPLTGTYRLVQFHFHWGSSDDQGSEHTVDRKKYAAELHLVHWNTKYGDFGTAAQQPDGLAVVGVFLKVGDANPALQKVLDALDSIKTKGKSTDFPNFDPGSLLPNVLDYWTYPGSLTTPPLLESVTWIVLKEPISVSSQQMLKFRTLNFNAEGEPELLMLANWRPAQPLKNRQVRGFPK
carbonic anhydrase, sequence (P00921 whole entry): as above

Row | SMILES | melting point | IC50 [1] | kind of inhibition (carbonic anhydrase; Lineweaver–Burk plots) | Ki (carbonic anhydrase; from slope vs. concentration of 6e, substrate p-nitrophenyl acetate, read-out: Ki (EI dissociation constant)) | activity reduced, fold, in comparison to the inhibitory value of derivative 6g ([1]; relative to 6g)
1 | CCOC(=O)/C=C1\S/C(=N\C(=O)c2ccccc2Br)N(c2cccc(CC)c2)C1=O [Compound 6c] | 235 to 237 °C | 60.1 ± 1.92 µM |  |  | 
2 | CCOC(=O)/C=C1\S/C(=N\C(=O)c2ccc(F)cc2)N(c2cccc(CC)c2)C1=O [Compound 6j] | 235 to 237 °C | 4.45 ± 0.329 µM |  |  | 
3 | CCOC(=O)/C=C1\S/C(=N\C(=O)c2cccc(C)c2)N(c2cccc(CC)c2)C1=O [Compound 6e] | 235 to 237 °C | 1.54 ± 0.016 µM | competitive mechanism | 2.2 µM | 
4 | CCOC(=O)/C=C1\S/C(=N\C(=O)c2ccccc2)N(c2cccc(CC)c2)C1=O [Compound 6f] | 235 to 237 °C | 9.52 ± 1.08 µM |  |  | 
5 | CCOC(=O)/C=C1\S/C(=N\C(=O)c2ccc(C)cc2)N(c2cccc(CC)c2)C1=O [Compound 6d] | 235 to 237 °C | 6.5 ± 0.854 µM |  |  | 

More lines, now with the values ahead:

Row | melting point | IC50 [1] | kind of inhibition (carbonic anhydrase; Lineweaver–Burk plots) | Ki (carbonic anhydrase; from slope vs. concentration of 6e, substrate p-nitrophenyl acetate, read-out: Ki (EI dissociation constant)) | activity reduced, fold, in comparison to the inhibitory value of derivative 6g ([1]; relative to 6g) | SMILES
6 | 235 to 237 °C | 1.78 ± 0.095 µM |  |  |  | CCOC(=O)/C=C1\S/C(=N\C(=O)c2cccc(Cl)c2)N(c2cccc(CC)c2)C1=O [Compound 6g]
7 | 235 to 237 °C | 67.5 ± 2.71 µM |  |  |  | CCOC(=O)/C=C1\S/C(=N\C(=O)c2ccc(Cl)cc2Cl)N(c2cccc(CC)c2)C1=O [Compound 6b]
8 | 235 to 237 °C | 1.66 ± 0.095 µM |  |  |  | CCOC(=O)C=C1SC(=NC(=O)c2ccccc2C)N(c2cccc(CC)c2)C1=O [Compound 6a]
9 | 235 to 237 °C | 11 ± 1.28 µM |  |  |  | CCOC(=O)/C=C1\S/C(=N\C(=O)c2ccccc2F)N(c2cccc(CC)c2)C1=O [Compound 6h]
10 | 235 to 237 °C | 5.03 ± 0.659 µM |  |  | approximately 2.9 fold | CCOC(=O)/C=C1\S/C(=N\C(=O)c2ccccc2Cl)N(c2cccc(CC)c2)C1=O [Compound 6i]
